Laboratory results reported in article PMC6225118 (2018).

Key:
[1] = tested on: 22AG (DNA, G4) AGGGTTAGGGTTAGGGTTAGGG; experiment: CD titration; details: 100 mM K+; 10 mM lithium cacodylate pH 7.2, 20 °C, 5 µM DNA
[2] = tested on: F21T (DNA, G4) GGGTTAGGGTTAGGGTTAGGG; experiment: FRET melting; details: 10 mM lithium cacodylate pH 7.2, 0.2 µM DNA, 1 µM compound
[3] = tested on: FKit2T (DNA, G4) GGGCGGGCGCGAGGGAGGGG; experiment: FRET melting; details: 10 mM K+, 90 mM Li+; 10 mM lithium cacodylate pH 7.2; 0.2 µM DNA, 1 µM compound
[4] = tested on: F21CTAT (DNA, G4) GGGCTAGGGCTAGGGCTAGGG; experiment: FRET melting; details: 10 mM K+, 90 mM Li+; 10 mM lithium cacodylate pH 7.2; 0.2 µM DNA, 1 µM compound
[5] = tested on: FMycT (DNA, G4) TTGAGGGTGGGTAGGGTGGGTAA; experiment: FRET melting; details: 1 mM K+, 99 mM Li+; 10 mM lithium cacodylate pH 7.2; 0.2 µM DNA, 1 µM compound
[6] = tested on: FCEB25wtT (DNA, G4) AAGGGTGGGTGTAAGTGTGGGTGGGT; experiment: FRET melting; details: 1 mM K+, 99 mM Li+; 10 mM lithium cacodylate pH 7.2; 0.2 µM DNA, 1 µM compound
[7] = tested on: FCEB25L111TT (DNA, G4) AAGGGTGGGTGGGTGGGT; experiment: FRET melting; details: 1 mM K+, 99 mM Li+; 10 mM lithium cacodylate pH 7.2; 0.2 µM DNA, 1 µM compound
[8] = tested on: FBcl2T (DNA, G4) AGGGGCGGGCGCGGGAGGAAGGGGGCGGGAGCGGGGCTG; experiment: FRET melting; details: 10 mM K+, 90 mM Li+; 10 mM lithium cacodylate pH 7.2; 0.2 µM DNA, 1 µM compound
[9] = tested on: 22AG (DNA, G4) AGGGTTAGGGTTAGGGTTAGGG; experiment: CD titration, 260 nm, Hill1 fit; details: 100 mM Na+; apparent; 10 mM lithium cacodylate pH 7.2, 20 °C, 5 µM DNA
[10] = tested on: ds26 (DNA, duplex) CAATCGGATCGAATTCGATCCGATTG; experiment: G4-FID, thiazole orange displacement; details: 10 mM lithium cacodylate pH 7.4, 20 °C, 0.25 µM DNA; up to 10 equivalents
[11] = tested on: Myc22 (c-myc) (DNA, G4) TGAGGGTGGGTAGGGTGGGTAA; experiment: G4-FID, thiazole orange displacement; details: 10 mM lithium cacodylate pH 7.4, 20 °C; partial displacement, up to 60%
[12] = tested on: 22CTA (DNA, G4) AGGGCTAGGGCTAGGGCTAGGG; experiment: G4-FID, thiazole orange displacement; details: 10 mM lithium cacodylate pH 7.4, 20 °C; partial displacement, saturates at 40–60%

## Cc1nc(-c2cccc(-c3noc(-c4cccc(-c5nc(-c6cccc(-c7noc(C)n7)n6)no5)c4)n3)n2)no1
[1]
  binding: yes
[2]; 10 mM K+, 90 mM Li+
  ΔTm: 10.8 ± 0.4 °C
[2]; 100 mM Na+
  ΔTm: 16.6 ± 0.8 °C
[3]
  ΔTm: 5.3 ± 0.4 °C
[4]
  ΔTm: 4.1 ± 0.1 °C
[5]
  ΔTm: 3.9 ± 0.9 °C
[6]
  ΔTm: 0.9 ± 0.7 °C
[7]
  ΔTm: 0.9 ± 0.8 °C
[8]
  ΔTm: 2.9 ± 0.7 °C
[9]
  Kd: 3.3 µM
[10]
  binding: no
[11]
  binding: yes
[12]
  binding: yes

## Cc1nc(-c2cccc(-c3noc(-c4cccc(-c5nc(-c6cccc(-c7noc(C)n7)n6)no5)n4)n3)n2)no1
[1]
  binding: yes
[2]; 10 mM K+, 90 mM Li+
  ΔTm: 11.5 ± 0.6 °C
[2]; 100 mM Na+
  ΔTm: 13.8 ± 0.4 °C
[3]
  ΔTm: 4.1 ± 0.3 °C
[4]
  ΔTm: 5.5 ± 0.2 °C
[9]
  Kd: 3.6 µM
[10]
  binding: no
[11]
  binding: yes
[12]
  binding: yes
